Results taken from patent publication US20060189699A1, “Antimicrobial trinervitane derivatives” (Commonwealth Scientific and Industrial Researh Org, priority 2003, published 2006).
“Also recorded” adds a separate entry of the source. Like-named read-outs stand apart in the source and are kept apart here.

Key:
[1] = system: Bacillus subtilis (ATCC Strain 6633); assay: modified agar bioassay for weak antimicrobial activity (clear zone); format: cell-based; settings: for level of antimicrobial activity relative to trinervitadienes previously isolated from N. triodiae: screening assays, qualitative, potency not determined quantitatively
Protocol: Extracts of the worker and soldier castes of the nasute termite species Nasutitermes exitiosus (Hill) (Isoptera:Termitidae) were screened against Bacillus subtilis (ATCC Strain 6633) at a concentration of 4.0 mg/ml in a bioassay. […] The only difference between the assay used in the current work and that described previously (WO 01/90035) is that in the current case the density of bacterial cells in the Luria-Bertani agar medium was ten times lower than that described in the earlier specification.
Twelve mL of a 70% methanol extract of N. exitiosus soldiers (containing 86 mg of solute) was fractionated by reverse-phase HPLC using a semi-preparative column at a flow rate of 4 ml/min and a gradient from water containing 0.05% (v/v) trifluroacetic acid to 100% acetonitrile over 20 minutes and then 100% acetonitrile for a further 15 minutes. The UV absorbance of the eluant was monitored at 230 nm. Fractions were collected over 35 minutes. Corresponding fractions were pooled across replicate separation runs and the pooled fractions were evaporated to dryness under nitrogen. Residues of the fractions were redissolved in HPLC grade water (fractions from 1-8 minutes), 70% aqueous methanol (9-15 minutes), or methanol (16-35 minutes).

[2] = system: Bacillus subtilis; settings: WO 01/90035, as compound 9; cited from earlier work
[3] = isolated HPLC sub-fractions / purified compounds
[4] = purified components of fraction F2, modified antimicrobial assay

Molecule | antimicrobial / biological activity [1, 3] | level of antimicrobial activity relative to trinervitadienes previously isolated from N. triodiae [1] | antimicrobial / biological activity [1] | clear zone diameter ([1]; pooled reverse-phase HPLC fractions of soldier extract, quantity corresponding to 20 μL of crude extract) [mm] | clear zone diameter [1, 4] [mm] | antimicrobial activity shown in the earlier patent specification [2]
1(15),8(9)-trinervitadiene-3α-ol-2-one | biologically active; also recorded: antimicrobial compound; also recorded: confirmed | qualitatively similar levels of antimicrobial activity | – | – | – | –
1(15),8(19)-trinervitadiene-2β,3α,9α-triol 2,3,9-triacetate [U] | – | qualitatively similar levels of antimicrobial activity | biologically active; also recorded: antimicrobial activity; also recorded: confirmed | – | – | –
C=C1/C2=C\C[C@@H](C)C/C=C/C(=C)[C@@H]3CC[C@@](C)([C@H]13)[C@@H](O)[C@@H]2O [P, 9E-1(14),8(19),9(10),15(17)-trinervitatetraene-2β,3α-diol] | – | qualitatively similar levels of antimicrobial activity | – | 4 | – | –
C=C1/C2=C\C[C@@H](C)CCCC(=C)[C@@H]3CC[C@@](C)([C@H]13)[C@@H](O)[C@@H]2O [Q, 1(14),8(19),15(17)-trinervitatriene-2β,3α-diol] | biologically active | qualitatively similar levels of antimicrobial activity | – | – | 4 | –
C=C1/C2=C\C[C@@H](C)CCC/C(C)=C3/CC[C@@](C)([C@H]13)[C@@H](O)[C@@H]2O [R, 1(14),7(8),15(17)-trinervitatriene-2β,3α-diol] | biologically active | qualitatively similar levels of antimicrobial activity | – | – | 5 | –
C/C1=C/CC[C@H](C)CCC2C(C)[C@@H]3C1CC[C@]3(C)[C@@H](O)[C@@H]2O (stereo partly drawn) [S, 1(15),8(9)-trinervitadiene-2β,3α-diol] | biologically active; also recorded: confirmed | – | – | – | – | antimicrobial activity
